In patent US20240182428A1, “PRODRUG OF CELECOXIB, PREPARATION METHOD THEREFOR AND APPLICATION THEREOF” (SHANGHAI INNOFORTUNE BOITECH CO. LTD., priority 2021, published 2024):
In brackets after ≈: the same amount, converted by molar mass. Where two headings read alike, the source gives them in different places.

How the values were obtained:
[1] = Ocular pharmacokinetic test: celecoxib content in eye tissues after ocular administration; format: in vivo, New Zealand rabbit; details: after ocular administration of eye drops
Description: To compare the content of the active compound celecoxib in each eye tissue to screen out lead compound with excellent pharmacokinetic characteristics after the ocular administration of SZY1907-P3, SZY1907-P4 and celecoxib in New Zealand rabbits.
Grouping: 9 male New Zealand rabbits were randomly divided into 3 groups of 3 animals each.
Dosage: According to the formulation of Guangzhou Zhongshan Ophthalmic Center, the concentration of SZY1907-P3/P4 in eye drops is 0.1%. Thus, the dose of SZY1907-P3/P4 was set to 0.100 mg/New Zealand rabbit and the dose of celecoxib was 0.075 mg/New Zealand rabbit (close to the equimolar dose of SZY1907-P3/P4).
The administration method was consistent with the clinical method, which was, ophthalmic administration, and the rabbit left and right eyes were simultaneously administrated.
0.1% of SZY1907-P3 eye drops: 0.01000 g of SZY1907-P3 was weighed, 0.00500 g of Tween-80 and 0.04500 g of polyoxyethylene 40 hydrogenated castor oil were added, and stirred with a glass rod until the solution was in an emulsion shape. 5 mL of distilled water was added slowly while stirring, dissolved for later use. 0.09000 g of sodium chloride and 0.00125 g of 80% benzalkonium chloride were weighed, 2 mL of distilled water was added, and stirred to dissolve. The two solutions was combined and adjusted the volume to 10 mL. […]

[2] = Solubility of SZY1907-P3 prototype and salt forms at different pH values
[3] = Stability (purity) of the prototype at different pH values; format: physicochemical
[4] = Table 1; cited from earlier work
[5] = physchem
[6] = pH 7

In the case of Cc1ccc(-c2cc(C(F)(F)F)nn2-c2ccc(S(N)(=O)=O)cc2)cc1 [Celecoxib], the “Drug concentration / distribution in ocular tissues (cornea, conjunctiva and aqueous humor), in words” value [1] is reported as “relatively low”.
With Cc1ccc(-c2cc(C(F)(F)F)nn2-c2ccc(S(=O)(=O)NC(=O)CCN)cc2)cc1 [SZY1907-P3] the “Solubility, in words” value [2] was “proper solubility”, the “pH dependence of solubility, in words” value [2] was “a certain pH dependence” and the “Stability under storage conditions, in words” value [3] was “relatively stable under storage conditions”.
With CNCCC(=O)NS(=O)(=O)c1ccc(-n2nc(C(F)(F)F)cc2-c2ccc(C)cc2)cc1 [SZY1907-P4] the “Drug concentration / distribution in ocular tissues (cornea, conjunctiva and aqueous humor), in words” value [1] was “almost not detected”.
Compound NCCCCC(N)C(=O)O (centres unmarked) [lysinate] has a Solubility ([2]; pH value 1) of 40470 µg/mL, a Solubility ([2]; pH value 2) of 80 µg/mL and a Solubility ([2]; pH value 4) of 100 µg/mL. For the same compound, the Solubility ([2]; pH value 6) was 90 µg/mL, the Solubility ([2]; pH value 7) was 90 µg/mL and the Solubility ([2]; pH value 8) was 100 µg/mL. The Pka [4] was 2.16.
In the case of Cc1ccc(-c2cc(C(F)(F)F)nn2-c2ccc(S(=O)(=O)NC(=O)CCN)cc2)cc1 [prototype], the Solubility ([2]; Table 2, pH value 6.5-7.0) is reported as 90 µg/mL, the Solubility ([2]; Table 2, pH value 7.0-7.5) is reported as 100 µg/mL and the Solubility ([5]; aqueous buffer) is reported as 100 µg/mL (≈ 221 µM). For the same compound, the Solubility ([5]; pH 1, simulated gastric fluid) was 83500 µg/mL (≈ 184000 µM), the Solubility ([5]; pH 2, simulated gastric fluid) was 1020 µg/mL (≈ 2250 µM) and the Solubility ([5]; pH 4, aqueous buffer) was 80 µg/mL (≈ 177 µM). The Solubility ([5]; pH 6, aqueous buffer) was 80 µg/mL (≈ 177 µM), the Solubility ([5]; pH 7, aqueous buffer) was 90 µg/mL (≈ 199 µM) and the Solubility ([5]; pH 8, aqueous buffer) was 80 µg/mL (≈ 177 µM). For the same compound, the “Purity at Day 0” value ([3]; pH value 5.5-6.0) was 99.85%, the “Purity at Day 1” value ([3]; pH value 5.5-6.0) was 99.32% and the “Purity at Day 2” value ([3]; pH value 5.5-6.0) was 99.67%. The “Purity at Day 5” value ([3]; pH value 5.5-6.0) was 99.63%, the “Purity at Day 0” value ([3]; pH value 6.5-7.0) was 99.88% and the “Purity at Day 1” value ([3]; pH value 6.5-7.0) was 100.00%. The “Purity at Day 2” value ([3]; pH value 6.5-7.0) was 99.74%, the “Purity at Day 5” value ([3]; pH value 6.5-7.0) was 99.87% and the “Purity at Day 0” value ([3]; pH value 7.0-7.5) was 99.81%. The “Purity at Day 1” value ([3]; pH value 7.0-7.5) was 100.00%, the “Purity at Day 2” value ([3]; pH value 7.0-7.5) was 99.70% and the “Purity at Day 5” value ([3]; pH value 7.0-7.5) was 99.84%.
In the case of fumarate, the Solubility [6] is given as 90 µg/mL and the Pka [4] is given as 3.03.
phosphate showed a Solubility ([2]; pH value 1) of 42900 µg/mL, a Solubility ([2]; pH value 2) of 25720 µg/mL and a Solubility ([2]; pH value 4) of 1280 µg/mL. The Solubility ([2]; pH value 6) was 470 µg/mL, the Solubility ([2]; pH value 7) was 90 µg/mL and the Solubility ([2]; pH value 8) was 100 µg/mL.
